Read-outs that look alike come from different tables or passages of the source.
Assays:
Type in all cases: cell-based
[1] = target: panel of 168 GPCRs (Homo sapiens, UniProt P08173); settings: GPCR CHRM4; agonist, 10 μM
[2] = target: panel of 168 GPCRs (Homo sapiens, UniProt P08908); settings: GPCR HTR1A; agonist, 10 μM
[3] = target: panel of 168 GPCRs (Homo sapiens, UniProt P14416); settings: GPCR DRD2L; agonist, 10 μM
[4] = target: panel of 168 GPCRs (Homo sapiens, UniProt P21452); settings: GPCR TACR2; agonist, 10 μM
[5] = target: panel of 168 GPCRs (Homo sapiens, UniProt P21730); settings: GPCR C5AR1; agonist, 10 μM
[6] = target: panel of 168 GPCRs (Homo sapiens, UniProt P21917); settings: GPCR DRD4; agonist, 10 μM
[7] = target: panel of 168 GPCRs (Homo sapiens, UniProt P23945); settings: GPCR FSHR; agonist, 10 μM
[8] = target: panel of 168 GPCRs (Homo sapiens, UniProt P28222); settings: GPCR HTR1B; agonist, 10 μM
[9] = target: panel of 168 GPCRs (Homo sapiens, UniProt P28335); settings: GPCR HTR2C; agonist, 10 μM
[10] = target: panel of 168 GPCRs (Homo sapiens, UniProt P30988); settings: agonist, 10 μM
[11] = target: panel of 168 GPCRs (Homo sapiens, UniProt P32238); settings: GPCR CCKAR; agonist, 10 μM
[12] = target: panel of 168 GPCRs (Homo sapiens, UniProt P32239); settings: GPCR CCKBR; agonist, 10 μM
[13] = target: panel of 168 GPCRs (Homo sapiens, UniProt P32249); settings: GPCR EBI2; agonist, 10 μM
[14] = target: panel of 168 GPCRs (Homo sapiens, UniProt P34972); settings: GPCR CNR2; agonist, 10 μM
[15] = target: panel of 168 GPCRs (Homo sapiens, UniProt P35414); settings: GPCR AGTRL1; agonist, 10 μM
[16] = target: panel of 168 GPCRs (Homo sapiens, UniProt P35462); settings: GPCR DRD3; agonist, 10 μM
[17] = target: panel of 168 GPCRs (Homo sapiens, UniProt P41597); settings: GPCR CCR2; agonist, 10 μM
[18] = target: panel of 168 GPCRs (Homo sapiens, UniProt P43115); settings: GPCR PTGER3; agonist, 10 μM
[19] = target: panel of 168 GPCRs (Homo sapiens, UniProt P47211); settings: GPCR GALR1; agonist, 10 μM
[20] = target: panel of 168 GPCRs (Homo sapiens, UniProt P48546); settings: GPCR GIPR; agonist, 10 μM
[21] = target: panel of 168 GPCRs (Homo sapiens, UniProt P51685); settings: GPCR CCR8; agonist, 10 μM
[22] = target: panel of 168 GPCRs (Homo sapiens, UniProt Q13324); settings: GPCR CRHR2; agonist, 10 μM
[23] = target: panel of 168 GPCRs (Homo sapiens, UniProt Q16581); settings: GPCR C3AR1; agonist, 10 μM
[24] = target: panel of 168 GPCRs (Homo sapiens, UniProt Q92847); settings: GPCR GHSR; agonist, 10 μM
[25] = target: panel of 168 GPCRs (Homo sapiens, UniProt Q96LB1); settings: GPCR MRGPRX2; agonist, 10 μM
[26] = target: panel of 168 GPCRs (Homo sapiens, UniProt Q96LB2); settings: GPCR MRGPRX1; agonist, 10 μM
[27] = target: panel of 168 GPCRs (Homo sapiens, UniProt Q99500); settings: GPCR EDG3; agonist, 10 μM
[28] = target: panel of 168 GPCRs (Homo sapiens, UniProt Q9GZQ6); settings: GPCR NPFFR1; agonist, 10 μM
[29] = target: panel of 168 GPCRs (Homo sapiens, UniProt Q9NSD7); settings: GPCR RXFP3; agonist, 10 μM
[30] = target: panel of 168 GPCRs (Homo sapiens, UniProt Q9P296); settings: GPCR C5L2; agonist, 10 μM
[31] = tested on: panel of 168 GPCRs; settings: GPCR DRD2S; agonist, 10 μM

panel of 168 GPCRs (Homo sapiens, UniProt P30988), sequence (P30988 25-474 limits assumed): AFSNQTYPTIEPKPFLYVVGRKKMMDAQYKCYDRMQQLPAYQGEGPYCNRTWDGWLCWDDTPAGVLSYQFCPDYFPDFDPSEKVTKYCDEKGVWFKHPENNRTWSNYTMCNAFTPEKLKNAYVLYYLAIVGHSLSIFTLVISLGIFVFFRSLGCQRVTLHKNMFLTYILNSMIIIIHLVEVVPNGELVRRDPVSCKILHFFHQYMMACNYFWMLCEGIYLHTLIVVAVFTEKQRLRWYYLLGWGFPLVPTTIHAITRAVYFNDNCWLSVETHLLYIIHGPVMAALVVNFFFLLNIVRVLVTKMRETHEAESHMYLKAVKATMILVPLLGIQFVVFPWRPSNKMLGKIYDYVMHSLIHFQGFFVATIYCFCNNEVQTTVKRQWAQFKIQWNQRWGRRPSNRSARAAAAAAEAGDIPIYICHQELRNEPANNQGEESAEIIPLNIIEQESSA
panel of 168 GPCRs (Homo sapiens, UniProt P48546), sequence (P48546 22-466 limits assumed): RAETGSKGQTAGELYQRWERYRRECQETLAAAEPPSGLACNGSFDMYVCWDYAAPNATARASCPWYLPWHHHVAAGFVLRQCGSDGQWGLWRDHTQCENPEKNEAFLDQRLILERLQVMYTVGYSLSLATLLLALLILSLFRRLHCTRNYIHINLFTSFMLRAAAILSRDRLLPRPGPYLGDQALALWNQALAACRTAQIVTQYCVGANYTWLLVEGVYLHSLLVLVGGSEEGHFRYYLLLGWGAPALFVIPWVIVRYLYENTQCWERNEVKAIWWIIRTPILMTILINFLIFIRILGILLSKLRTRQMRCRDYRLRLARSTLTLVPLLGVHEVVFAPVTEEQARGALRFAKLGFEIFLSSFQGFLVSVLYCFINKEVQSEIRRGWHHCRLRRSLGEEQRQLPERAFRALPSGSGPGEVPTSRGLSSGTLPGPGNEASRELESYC
panel of 168 GPCRs (Homo sapiens, UniProt P28335), sequence (P28335 33-458 limits assumed): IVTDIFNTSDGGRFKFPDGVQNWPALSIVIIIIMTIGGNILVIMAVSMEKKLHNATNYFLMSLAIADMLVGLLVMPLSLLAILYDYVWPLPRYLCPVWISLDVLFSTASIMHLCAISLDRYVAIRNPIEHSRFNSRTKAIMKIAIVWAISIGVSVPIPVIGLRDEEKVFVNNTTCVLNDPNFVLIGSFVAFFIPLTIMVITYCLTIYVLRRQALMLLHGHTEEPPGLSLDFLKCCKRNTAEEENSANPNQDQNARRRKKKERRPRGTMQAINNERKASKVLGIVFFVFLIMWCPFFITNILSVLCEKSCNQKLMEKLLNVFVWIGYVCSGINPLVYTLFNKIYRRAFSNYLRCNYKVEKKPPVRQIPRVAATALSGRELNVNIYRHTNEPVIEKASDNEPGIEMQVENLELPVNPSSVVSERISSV
panel of 168 GPCRs (Homo sapiens, UniProt P23945), sequence (P23945 18-695 limits assumed): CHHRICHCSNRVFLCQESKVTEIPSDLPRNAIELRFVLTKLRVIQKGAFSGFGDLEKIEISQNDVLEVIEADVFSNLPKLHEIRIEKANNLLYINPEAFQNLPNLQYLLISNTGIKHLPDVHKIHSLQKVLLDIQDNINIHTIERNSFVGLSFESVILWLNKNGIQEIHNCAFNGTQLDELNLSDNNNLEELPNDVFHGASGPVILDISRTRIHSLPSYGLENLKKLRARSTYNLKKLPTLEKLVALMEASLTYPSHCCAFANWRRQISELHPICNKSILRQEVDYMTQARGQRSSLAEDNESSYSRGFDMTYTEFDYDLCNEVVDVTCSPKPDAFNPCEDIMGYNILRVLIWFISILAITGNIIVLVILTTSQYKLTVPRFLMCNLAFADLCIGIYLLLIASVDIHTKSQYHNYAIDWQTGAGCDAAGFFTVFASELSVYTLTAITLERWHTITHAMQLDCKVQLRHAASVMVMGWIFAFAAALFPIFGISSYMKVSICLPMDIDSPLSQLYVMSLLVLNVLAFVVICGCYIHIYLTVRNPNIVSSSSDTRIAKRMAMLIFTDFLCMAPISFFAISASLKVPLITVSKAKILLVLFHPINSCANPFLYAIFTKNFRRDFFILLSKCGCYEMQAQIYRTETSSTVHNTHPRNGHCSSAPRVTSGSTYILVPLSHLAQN

`COc1ccc(OCCN2CCN(C(=O)c3cc4ccccc4[nH]3)CC2)cc1` [Compound 1, (1H-indol-2-yl)(4-(2-(4-methoxyphenoxy)ethyl)piperazin-1-yl)methanone] was tested, and the “β-Arrestin Recruitment activity” value [1] was 3%, the “β-Arrestin Recruitment activity” value [2] was 8% and the “β-Arrestin Recruitment activity” value [3] was 37%. For the same compound, the “β-Arrestin Recruitment activity” value [4] was 3%, the “β-Arrestin Recruitment activity” value [5] was 0% and the “β-Arrestin Recruitment activity” value [6] was 4%. The “β-Arrestin Recruitment activity” value [7] was 5%, the “β-Arrestin Recruitment activity” value [8] was 16% and the “β-Arrestin Recruitment activity” value [9] was 6%. The “β-Arrestin Recruitment activity” value ([10]; GPCR CALCR RAMP2) was 5%, the “β-Arrestin Recruitment activity” value ([10]; GPCR CALCR RAMP3) was 6% and the “β-Arrestin Recruitment activity” value ([10]; GPCR CALCR) was 0%. The “β-Arrestin Recruitment activity” value [11] was 0%, the “β-Arrestin Recruitment activity” value [12] was 4% and the “β-Arrestin Recruitment activity” value [13] was 0%. For the same compound, the “β-Arrestin Recruitment activity” value [14] was −14%, the “β-Arrestin Recruitment activity” value [15] was 4% and the “β-Arrestin Recruitment activity” value [16] was 164%. The “β-Arrestin Recruitment activity” value [17] was 4%, the “β-Arrestin Recruitment activity” value [18] was 3% and the “β-Arrestin Recruitment activity” value [19] was 4%. The “β-Arrestin Recruitment activity” value [20] was 3%, the “β-Arrestin Recruitment activity” value [21] was 0% and the “β-Arrestin Recruitment activity” value [22] was 0%. The “β-Arrestin Recruitment activity” value [23] was 0%, the “β-Arrestin Recruitment activity” value [24] was −3% and the “β-Arrestin Recruitment activity” value [25] was 5%. For the same compound, the “β-Arrestin Recruitment activity” value [26] was 3%, the “β-Arrestin Recruitment activity” value [27] was 4% and the “β-Arrestin Recruitment activity” value [28] was 4%. The “β-Arrestin Recruitment activity” value [29] was 5%, the “β-Arrestin Recruitment activity” value [30] was 6% and the “β-Arrestin Recruitment activity” value [31] was 43%.

Source: patent US11634404B2 (priority 2016, dated 2023)
